Laboratory results as given in PubChem BioAssay (NCI).
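1) Cells in 96-well plates. 2) Compound, 48 h, 5 concentrations. 3) Linear interpolation between surrounding doses. 4) Unreached endpoint = highest concentration. The concentration for full growth arrest is given as TGI.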

What was measured:
Experiment in all cases: NCI-60 cell line screen, 48 h
[1] = tested on: CAKI-1 renal
[2] = tested on: SF-268 CNS
[3] = tested on: HT29 colon
[4] = tested on: EKVX NSCLC
[5] = tested on: SF-539 CNS
[6] = tested on: U251 CNS
[7] = tested on: NCI-H460 lung
[8] = tested on: SNB-75 CNS
[9] = tested on: MDA-N
[10] = tested on: NCI/ADR-RES ovarian
[11] = tested on: CCRF-CEM leukemia
[12] = tested on: OVCAR-3 ovarian
[13] = tested on: SK-MEL-5 melanoma
[14] = tested on: ACHN renal
[15] = tested on: HCC-2998 colon
[16] = tested on: DU-145 prostate
[17] = tested on: HCT-15 colon
[18] = tested on: SW-620 colon

SMILES	TGI [1] [µM]	TGI [2] [µM]	TGI [3] [µM]	TGI [4] [µM]	TGI [5] [µM]	TGI [6] [µM]	TGI [7] [µM]	TGI [8] [µM]	TGI [9] [µM]	TGI [10] [µM]	TGI [11] [µM]	TGI [12] [µM]	TGI [13] [µM]	TGI [14] [µM]	TGI [15] [µM]	TGI [16] [µM]	TGI [17] [µM]	TGI [18] [µM]
CC(=O)N(CN1C(=O)CCC1C(=O)O)c1cccc(O)c1 (stereo not drawn)	> 100	> 100	> 100	> 100	> 100	> 100	> 100	> 100	> 100	> 100	> 100	> 100	> 100	> 100	> 100	> 100	> 100	> 100
O=C1C(=Nc2ccccc2)Oc2cc(O)ccc21	> 100	> 100	> 100	> 100	> 100	> 100	> 100	> 100	> 100	> 100	> 100	> 100	> 100	> 100	> 100	> 100	> 100	> 100
O=C1C(=C(I)I)c2ccccc2-c2ccccc21	7.12	20.4	12.2	9.45	3.61	17.6	33.9	12.8	4.6	12.2	2.48	3.82	19.7	5.59	7.54	11.2	8.51	8.13
CCOc1cc2c(cc1OC(C)=O)C(=O)CC[C@H]1C3CC[C@H](OC(C)=O)[C@@]3(C)CC[C@H]21 (stereo partly drawn)	> 100	> 100	> 100	> 100	> 100	> 100	> 100	> 100	> 100	> 100	> 100	> 100	> 100	> 100	> 100	> 100	> 100	> 100
COc1cccc2c1C(=O)c1ccc3cc(CCl)cc(O)c3c1C2=O	1.7	1.42	0.578	1.57	0.701	1.67	0.768	1.67	0.765	1.39	1.98	0.696	1.19	0.84	1.46	1.78	1.13	0.293
NC(=O)NC(=O)c1cccc(NC(=O)CF)c1	> 100	> 100	> 100	> 100	> 100	> 100	> 100	> 100	> 100	> 100	> 100	> 100	> 100	> 100	> 100	> 100	> 100	> 100
C=C1C(=O)O[C@H]2[C@H]3O[C@@H](C[C@@H]12)[C@@]1(C)CC[C@H](O1)C(C)=CCC[C@H]3C	2.56	2.95	3.33	3.32	3.07	2.97	7.26	5.65	3	3.33	1.98	2.7	2.81	2.88	3.25	2.86	3.2	7.41
COC(C)(C)CCc1[nH]c2ccccc2c1CC(=O)NCCc1cncn1C	> 100	> 100	> 100	> 100	> 100	> 100	> 100	> 100	> 100	> 100	> 100	> 100	> 100	> 100	> 100	> 100	> 100	> 100
CC(=O)O[C@H]1CCn2c3c(c(C)c21)C(=O)C(N1CC1)=C(C)C3=O	> 10	> 10	> 10	> 10	> 10	> 10	> 10	> 10	> 10	> 10	> 10	> 10	6.67	> 10	> 10	> 10	> 10	> 10
COc1cccc(C2SCC(=O)N2c2ccc(-n3c(-c4ccccc4)nc4ccccc4c3=O)cc2)c1OC (stereo not drawn)	> 100	> 100	> 100	> 100	> 100	> 100	> 100	> 100	> 100	> 100	> 100	> 100	> 100	> 100	> 100	> 100	> 100	> 100
O=C1/C(=C/c2ccccc2)CCC/C1=C\c1ccc(O)c(CN2CCCCC2)c1	18.8	17	4.04	18.1	8.95	11	16.5	17.1	8.11	8.44	> 100	22.9	9.62	3.8	5.46	7.44	3.74	5.94
